Results taken from US9512128B2 (BAYER CROPSCIENCE AG, priority 2012, dated 2016).
Read-outs that look alike come from different tables or passages of the source.

Tests used:
[1] = log P by HPLC on reversed-phase columns (C 18), EEC directive 79/831 Annex V.A8; type: physicochemical; settings: for logP[a]: method [a]; for logP[b]: method [b]; for chromatographic logP: reversed-phase C18 HPLC column
In short: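 Measured by reversed-phase C18 HPLC (LC-MS) with a linear 10→95% acetonitrile gradient. Acidic: pH 2.7, 0.1% formic acid. Neutral: pH 7.8, 0.001 M ammonium bicarbonate.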

[2] = tested on: larvae of the mustard beetle (Phaedon cochleariae); experiment: Phaedon cochleariae spray test (PHAECO); type: in vivo; settings: application rate 500 g/ha, after 7 days, Chinese cabbage leaf discs
Procedure: 2. Phaedon cochleariae Spray Test (PHAECO)
(§1) • Solvents: 78.0 parts by weight of acetone • 1.5 part by weight of dimethylformamide • Emulsifier: 0.5 part by weight of alkylaryl polyglycol ether
(§2) To produce a suitable preparation of active compound, 1 part by weight of active compound is mixed with the stated amounts of solvents and emulsifier, and the concentrate is diluted with emulsifier-containing water to the desired concentration.
After 7 days, the efficacy in % is determined. 100% means that all of the beetle larvae have been killed; 0% means that none of the beetle larvae have been killed.

[3] = tested on: caterpillars of the armyworm (Spodoptera frugiperda); experiment: Spodoptera frugiperda spray test (SPODFR); type: in vivo; settings: application rate 500 g/ha, after 7 days, maize leaf discs
Procedure: 3. Spodoptera frugiperda Spray Test (SPODFR)
as §1, §2
Leaf discs of maize (Zea mays) are sprayed with an active compound preparation of the desired concentration and, after drying, populated with caterpillars of the armyworm (Spodoptera frugiperda).
After 7 days, the efficacy in % is determined. 100% means that all of the caterpillars have been killed; 0% means that none of the caterpillars have been killed.

[4] = tested on: greenhouse red spider mite (Tetranychus urticae); experiment: Tetranychus urticae spray test, OP-resistant (TETRUR); type: in vivo; settings: after 6 days, bean leaf discs
In short: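 Bean leaf discs infested with all stages of an OP-resistant strain are sprayed with compound in acetone/DMF with alkylaryl polyglycol ether emulsifier, diluted in water; % mortality after 6 days (100% = all mites killed).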

[5] = tested on: southern root-knot nematode (Meloidogyne incognita); experiment: Meloidogyne incognita test (MELGIN); type: in vivo; settings: application rate 20 ppm, after 14 days, lettuce
Procedure: 5. Meloidogyne incognita Test (MELGIN) • Solvent: 125.0 parts by weight of acetone To prepare a suitable active compound preparation, 1 part by weight of active compound is mixed with the stated amount of solvent and the concentrate is diluted with water to the desired concentration. Vessels are filled with sand, active compound solution, an egg/larvae suspension of the southern root-knot nematode (Meloidogyne incognita) and lettuce seeds. The lettuce seeds germinate and the plants develop. On the roots, galls are formed. After 14 days, the nematicidal effect in % is determined by the formation of galls. 100% means that no galls have been found; 0% means that the number of galls on the treated plants corresponds to the untreated control.

[6] = tested on: cattle ticks (Boophilus microplus); experiment: Boophilus microplus injection test (BOOPMI Inj); type: in vivo; settings: 20 μg/animal, injection into the abdomen, assessed after 7 days
Procedure: 6. Boophilus microplus Injection Test (BOOPMI Inj)
• Solvent: dimethyl sulphoxide
To produce a suitable preparation of active compound, 10 mg of active compound are mixed with 0.5 ml of solvent, and the concentrate is diluted with solvent to the desired concentration.
1 μl of the active compound solution is injected into the abdomen of 5 fed adult female cattle ticks (Boophilus microplus). The animals are transferred into dishes and kept in a climate-controlled room.
The activity is assessed after 7 days by laying of fertile eggs. Eggs whose fertility is not visible from the outside are stored in a climate-controlled cabinet until the larvae hatch after about 42 days. An efficacy of 100% means that none of the ticks has laid any fertile eggs; 0% means that all eggs are fertile.

[7] = pH 2.7, acidic range, pH 2.7, 0.1% aqueous formic acid / acetonitrile, read-out: log P[a]
[8] = pH 2.7, method [a], read-out: logP[a]
[9] = pH 7.8, method [b], read-out: logP[b]
[10] = pH 7.8, neutral range, pH 7.8, 0.001 molar aqueous ammonium bicarbonate / acetonitrile, read-out: log P[b]

SMILES: Cc1ccc(-n2cnc3c(c(C)nn3C)c2=O)cc1[S+]([O-])CC(F)(F)F (racemic) [Compound 33]
- logP[a] [1]: 1.79
- logP[b] [1]: 1.75
- efficacy in % (beetle larvae killed) [2]: 100%
- efficacy in % (caterpillars killed) [3]: 100%
- efficacy in % (spider mites killed) ([4]; application rate 500 g/ha): 90%

SMILES: COc1ccc(-n2cnc3sccc3c2=O)cc1[S+]([O-])CC(F)(F)F (stereo not drawn) [Compound 89]
- logP[a] [1]: 1.91
- logP[b] [1]: 1.91
- efficacy in % (beetle larvae killed) [2]: 100%
- nematicidal effect in % (formation of galls) [5]: 90%
- efficacy in % (laying of fertile eggs) [6]: 100%

SMILES: Cc1cc(F)c(-n2nnc3snc(C)c3c2=O)cc1[S+]([O-])CC(F)(F)F (stereo not drawn) [Compound 206]
- efficacy in % (beetle larvae killed) [2]: 100%
- efficacy in % (caterpillars killed) [3]: 100%
- efficacy in % (spider mites killed) ([4]; application rate 500 g/ha): 100%
- nematicidal effect in % (formation of galls) [5]: 100%

SMILES: Cc1cc(F)c(-n2nnc3cnn(C)c3c2=O)cc1[S+]([O-])CC(F)(F)F (stereo not drawn) [Compound 136]
- efficacy in % (beetle larvae killed) [2]: 83%
- efficacy in % (spider mites killed) ([4]; application rate 500 g/ha): 100%
- nematicidal effect in % (formation of galls) [5]: 90%

SMILES: Cc1cc(F)c(-n2c(C)nc3c(cnn3C)c2=O)cc1[S+]([O-])CC(F)(F)F (stereo not drawn) [Compound 15, 5-{2-Fluoro-4-methyl-5-[(2,2,2-trifluoroethyl)sulphinyl]phenyl}-1,6-dimethyl-1,5-dihydro-4H-pyrazolo[3,4-d]pyrimidin-4-one]
- chromatographic logP [1, 7]: 1.85
- chromatographic logP [1, 8]: 1.85
- chromatographic logP [1, 9]: 1.84
- chromatographic logP [1, 10]: 1.84
- efficacy in % (spider mites killed) ([4]; application rate 500 g/ha): 90%
- nematicidal effect in % (formation of galls) [5]: 90%
- efficacy in % (laying of fertile eggs) [6]: 100%

SMILES: Cc1cc(F)c(-n2cnc3sccc3c2=O)cc1[S+]([O-])CC(F)(F)F (stereo not drawn) [Compound 96]
- logP[a] [1]: 2.10
- logP[b] [1]: 2.09
- efficacy in % (beetle larvae killed) [2]: 100%
- efficacy in % (spider mites killed) ([4]; application rate 500 g/ha): 100%
- nematicidal effect in % (formation of galls) [5]: 90%

SMILES: Cc1cc(F)c(-n2cnc3c(cnn3C)c2=O)cc1SCC(F)(F)F [Compound 1, 5-{2-Fluoro-4-methyl-5-[(2,2,2-trifluoroethyl)sulphanyl]phenyl}-1-methyl-1,5-dihydro-4H-pyrazolo[3,4-d]pyrimidin-4-one]
- chromatographic logP [1, 7]: 2.66
- chromatographic logP [1, 8]: 2.66
- chromatographic logP [1, 9]: 2.65
- chromatographic logP [1, 10]: 2.65
- efficacy in % (beetle larvae killed) [2]: 100%
- efficacy in % (spider mites killed) ([4]; application rate 500 g/ha): 90%

SMILES: Cc1cc(F)c(-n2cnc3scnc3c2=O)cc1[S+]([O-])CC(F)(F)F (stereo not drawn) [Compound 61]
- logP[a] [1]: 1.57
- logP[b] [1]: 1.56
- efficacy in % (beetle larvae killed) [2]: 100%
- efficacy in % (spider mites killed) ([4]; application rate 500 g/ha): 90%
- nematicidal effect in % (formation of galls) [5]: 90%
- efficacy in % (laying of fertile eggs) [6]: 100%

SMILES: Cc1ccc(-n2cnc3c(cnn3C)c2=O)cc1[S+]([O-])CC(F)(F)F (racemic) [Compound 27]
- logP[a] [1]: 1.57
- logP[b] [1]: 1.57
- efficacy in % (spider mites killed) ([4]; application rate 500 g/ha): 90%
- efficacy in % (laying of fertile eggs) [6]: 100%

SMILES: Cc1nn(C)c2ncn(-c3ccc(Cl)c(SCC(F)(F)F)c3)c(=O)c12 [Compound 36]
- logP[a] [1]: 2.82
- logP[b] [1]: 2.79
- efficacy in % (beetle larvae killed) [2]: 100%
- efficacy in % (caterpillars killed) [3]: 83%

SMILES: Cc1cc(F)c(-n2cnc3cnn(C)c3c2=O)cc1[S+]([O-])CC(F)(F)F (stereo not drawn) [Compound 40]
- logP[a] [1]: 1.82
- logP[b] [1]: 1.81
- efficacy in % (spider mites killed) ([4]; application rate 500 g/ha): 90%
- nematicidal effect in % (formation of galls) [5]: 100%
- efficacy in % (laying of fertile eggs) [6]: 100%

SMILES: Cc1c2c(=O)n(-c3ccc(C(F)(F)F)c([S+]([O-])CC(F)(F)F)c3)cnc2nn1C (stereo not drawn) [Compound 46]
- logP[a] [1]: 2.11
- logP[b] [1]: 2.07
- efficacy in % (beetle larvae killed) [2]: 100%
- efficacy in % (caterpillars killed) [3]: 100%
- nematicidal effect in % (formation of galls) [5]: 90%

SMILES: Cc1cc(F)c(-n2cnc3cnn(C(C)C)c3c2=O)cc1[S+]([O-])CC(F)(F)F (stereo not drawn) [Compound 165]
- efficacy in % (beetle larvae killed) [2]: 100%
- efficacy in % (spider mites killed) ([4]; application rate 500 g/ha): 100%
- nematicidal effect in % (formation of galls) [5]: 100%

SMILES: Cc1cc(F)c(-n2c(C)nc3cnn(C)c3c2=O)cc1[S+]([O-])CC(F)(F)F (stereo not drawn) [Compound 41]
- logP[a] [1]: 1.90
- logP[b] [1]: 1.88
- efficacy in % (spider mites killed) ([4]; application rate 500 g/ha): 100%
- nematicidal effect in % (formation of galls) [5]: 90%
- efficacy in % (laying of fertile eggs) [6]: 100%

SMILES: Cc1cc(F)c(-n2cnc3cnn(C(C)C)c3c2=O)cc1SCC(F)(F)F [Compound 161]
- efficacy in % (beetle larvae killed) [2]: 83%
- efficacy in % (spider mites killed) ([4]; application rate 500 g/ha): 100%
- nematicidal effect in % (formation of galls) [5]: 100%

SMILES: Cc1cc(F)c(-n2cnc3snc(C(C)(C)C)c3c2=O)cc1[S+]([O-])CC(F)(F)F (stereo not drawn) [Compound 208]
- efficacy in % (beetle larvae killed) [2]: 83%
- efficacy in % (spider mites killed) ([4]; application rate 500 g/ha): 100%
- nematicidal effect in % (formation of galls) [5]: 100%

SMILES: Cc1cc(C)c([S+]([O-])CC(F)(F)F)cc1-n1cnc2cnn(C)c2c1=O (stereo not drawn) [Compound 134]
- efficacy in % (spider mites killed) ([4]; application rate 500 g/ha): 100%
- nematicidal effect in % (formation of galls) [5]: 100%
- efficacy in % (laying of fertile eggs) [6]: 100%

SMILES: Cc1cc(F)c(-n2cnc3ccsc3c2=O)cc1[S+]([O-])CC(F)(F)F (stereo not drawn) [Compound 112]
- logP[a] [1]: 1.96
- logP[b] [1]: 1.95
- efficacy in % (beetle larvae killed) [2]: 100%
- efficacy in % (spider mites killed) ([4]; application rate 100 g/ha): 90%
- nematicidal effect in % (formation of galls) [5]: 90%

SMILES: Cc1nc2c(=O)n(-c3cc([S+]([O-])CC(F)(F)F)c(C)cc3F)cnc2s1 (stereo not drawn) [Compound 73]
- logP[a] [1]: 1.80
- logP[b] [1]: 1.77
- efficacy in % (spider mites killed) ([4]; application rate 500 g/ha): 100%
- nematicidal effect in % (formation of galls) [5]: 90%
- efficacy in % (laying of fertile eggs) [6]: 100%

SMILES: Cc1cc(F)c(-n2nnc3snc(C)c3c2=O)cc1SCC(F)(F)F [Compound 205]
- efficacy in % (beetle larvae killed) [2]: 100%
- efficacy in % (caterpillars killed) [3]: 100%
- efficacy in % (spider mites killed) ([4]; application rate 500 g/ha): 100%

SMILES: Cc1cc(F)c(-n2cnc3snc(C)c3c2=O)cc1[S+]([O-])CC(F)(F)F (stereo not drawn) [Compound 204]
- efficacy in % (beetle larvae killed) [2]: 83%
- efficacy in % (spider mites killed) ([4]; application rate 500 g/ha): 90%
- nematicidal effect in % (formation of galls) [5]: 100%
- efficacy in % (laying of fertile eggs) [6]: 100%

SMILES: Cc1cc(F)c(-n2cnc3c(C)nn(C)c3c2=O)cc1[S+]([O-])CC(F)(F)F (stereo not drawn) [Compound 129]
- efficacy in % (spider mites killed) ([4]; application rate 500 g/ha): 90%
- nematicidal effect in % (formation of galls) [5]: 90%
- efficacy in % (laying of fertile eggs) [6]: 100%

SMILES: Cc1cc(F)c(-n2cnc3ncsc3c2=O)cc1[S+]([O-])CC(F)(F)F (stereo not drawn) [Compound 79]
- logP[a] [1]: 1.60
- logP[b] [1]: 1.57
- efficacy in % (spider mites killed) ([4]; application rate 500 g/ha): 100%
- nematicidal effect in % (formation of galls) [5]: 90%
- efficacy in % (laying of fertile eggs) [6]: 100%

SMILES: Cc1cc(F)c(-n2cnc3c(cnn3C)c2=O)cc1[S+]([O-])CC(F)(F)F (stereo not drawn) [Compound 2, 5-{2-Fluoro-4-methyl-5-[(2,2,2-trifluoroethyl)sulphinyl]phenyl}-1-methyl-1,5-dihydro-4H-pyrazolo[3,4-d]pyrimidin-4-one]
- chromatographic logP [1, 7]: 1.73
- chromatographic logP [1, 8]: 1.73
- chromatographic logP [1, 9]: 1.69
- chromatographic logP [1, 10]: 1.69
- efficacy in % (beetle larvae killed) [2]: 100%
- efficacy in % (spider mites killed) ([4]; application rate 500 g/ha): 100%
- efficacy in % (laying of fertile eggs) [6]: 100%

SMILES: Cc1cc(F)c(-n2nnc3c(cnn3C)c2=O)cc1[S+]([O-])CC(F)(F)F (stereo not drawn) [Compound 120, 3-{2-Fluoro-4-methyl-5-[(2,2,2-trifluoroethyl)sulphinyl]phenyl}-7-methyl-3,7-dihydro-4H-pyrazolo[3,4-d][1,2,3]triazin-4-one]
- chromatographic logP [1, 7]: 2.14
- chromatographic logP [1, 8]: 2.14
- chromatographic logP [1, 9]: 2.1
- chromatographic logP [1, 10]: 2.1
- efficacy in % (beetle larvae killed) [2]: 83%
- efficacy in % (spider mites killed) ([4]; application rate 500 g/ha): 90%
